Patent publication US12226396B2, “Gluconic acid derivatives for use in the treatment and/or prevention of microbial infections” (GEDEA BIOTECH AB, priority 2017, dated 2025)

What was measured:
Escherichia coli K12 = experiment: E. coli biofilm study in M9 medium (crystal violet); type: cell-based
Description: The bacterial strain Escherichia coli K12 was used for the biofilm study. This strain was maintained on LB medium at 37° C. The biofilm was studied in synthetic medium M9 (×1 M9 minimal salts (Sigma M6030), 2 mM MgSO4, 0.1 mM CaCl2, and 0.2% glucose), which contained either phosphate buffer, citric acid, lactic acid, gluconic acid or glucono-O-lactone to obtain media with different pH (2.6-6.6).
The overnight culture of E. coli K12 (OD600˜5.0) was washed with sterile water and inoculated to the final concentration 0.2 OD/ml of M9 medium with different pH of different compounds. The biofilm development was studied in 96-well flat-bottom polystyrene microtiter plates (Sigma Aldrich, Corning® Costar® culture plates, CLS3596-50EA). The biofilm was stained with crystal violet.

Candida glabrata = experiment: Biofilm formation in a model of in vivo conditions (pellet release in pH 3.71 buffer); type: cell-based; conditions: pellet 2.5 g in pH 3.71 buffer at 37° C, sample after 1 h, diluted 50 times, biofilm after 24 h
Description: (§1) Biofilm was measured in liquid culture as described [K. Scherz et al., G3 (Bethesda), 2014, 4, 1671-1680. I. Serrano-Fujarte et al. Biomed Res Int. 2015; 2015:783639] with some modifications. Prior the biofilm assay, yeast cultures were grown in liquid YPD medium for 24 hours until stationary phase (OD600 11-17)^2, cells were then pelleted by centrifugation (1699 g), washed with sterile water and cells were further inoculated into test biofilm medium (YNB (yeast nitrogen base without amino acids and ammonium sulphate) supplemented with 0.5% ammonium sulphate, 0.2% glucose and 100 mM L-proline pH7.0) at final concentration 0.2 OD600/ml and incubated in 96-well flat-bottom polystyrene microtiter plates (Sigma Aldrich, Corning® Costar® culture plates, CLS3596-50EA) for 72 hours at 37° C. thermostat. At defined time points crystal violet (HT901-8FOZ; Sigma Aldrich) was added to the media at the final concentration 0.05%, in addition total biomass was measured. After 24 hours of cells staining, plate wells were washed four times with 200 μl of water to remove planktonic cells, biofilms were then dried and dissolved in 200 μl of 96% ethanol. Total biomass and crystal violet biofilm staining measurements were performed at OD560 with FLUOstar OPTIMA plate reader, BMG LABTECH. Crystal violet biofilm measurements were normalized to the total biomass (OD560Biofilm/OD560 total biomass).
(§2) Pellet of lactonized/oligomerized gluconic acid (1.3 g, duplicate samples) were added to buffer solution of pH 3.71 (0.5 M KH2PO/ortho phosphoric acid, 10 mL) at 37° C. Samples (4 mL) were taken every hour (1, 2, 3, 4, 5, 6 and 24 h) and new buffer solution (4 mL) was added. The samples were diluted 50 times with biofilm medium (vide supra) and the amount of biofilm formation was measured after 24 h as described above. […]
(§3) Samples (4 mL) were taken at fixed time points (1, 2, 3, 4, 5, 6 and 24 h) and new buffer solution (4 mL) was added. The samples were diluted 50 times with biofilm medium (vide supra) and the amount of biofilm formation was measured after 24 h as described above. […]

Candida albicans = experiment: as above; type: cell-based
Description: as §1, §2, §3

C. albicans [1] = experiment: Microfluidics study of biofilm development (cell morphology); type: cell-based, Candida albicans; conditions: 1 h hydrolysate of 2.5 g pellet diluted 50 times, after 5 h
Description: To monitor the C. albicans cell morphology we studied the biofilm development also using microscopy and microfluidics. After the yeast cells were inoculated, hyphae started to form within first hour of incubation in the biofilm medium (YNB supplemented with 100 mM proline and 0.2% glucose, pH7.0). […] A sample was taken after 1 h and diluted 50 times with biofilm medium and added to C. albicans.

C. albicans [2] = experiment: Viability of mature biofilm, XTT assay; type: cell-based, Candida albicans; conditions: 48 h of incubation with GDA
Description: (§4) XXT is a colorimetric assay for quantification of cellular viability, and cytotoxicity. The assay is based on the cleavage of the tetrazolium salt XTT, a conversion that only occurs in viable cells. […] Then the cells were washed 2 times with PBS, after which the XTT reaction mixture was added. After 30 min the optical density measured at 485 nm.

[3] = tested on: Lactobacillus crispatus CCUG 44128; experiment: MIC microdilution test; type: cell-based; conditions: IsoS-M.R.S., 48 hours, 5% CO2
Description: (§5) Gardnerella vaginalis, Lactobacillus iners, and Lactobacillus crispatus were recovered by CCUG (Culture Collection of University of Gothenburg). Subculture plates were made for G. vaginalis on Chocolate-GL plates and Lactobacillus spp. on M.R.S. agar plates at 5% CO2, 36° C. The inoculums were prepared from the subculture plates. Colonies were inoculated to culture tubes with 5 ml test medium and vortexed 2 min with about 10 glass beads a 3 mm in diameter. Colonies were taken until the turbidity of the solution was OD475 of 0.4-0.5. The bacterial solutions were checked in light microscopy at ×40 with phase contrast to make sure that the cells were dispersed. Each bacterial suspension was diluted in its test medium, 1:100, to equal 1-3×10^6 CFU/ml. The microbial solutions were stored at 20° C. during the preparation of the inoculums
(§6) The test substance solution was prepared aseptically at 1 g/ml in sterile H2O. The first row of wells was filled with 100 μl substance and then 2 fold dilutions were done vertically in 8 steps.
(§7) Next, 100 μl microorganisms were added and the plates were gently shaken at 500 rpm for 30 seconds before incubation at 35° C. and 90% RH in the CO2 incubator set at 5% CO2. After 48 and 72 hours of incubation, the OD was measured and ocular assessments were done. The pH was also measured for all dilutions, n=1, pH=6.8-7.1

[4] = tested on: Gardnerella vaginalis CCUG 3717; experiment: MIC microdilution test; type: cell-based; conditions: CAMHB, 48 hours, 5% CO2
Description: as §5, §6, §7

C. albicans [5] = experiment: Mature biofilm cell survival, serial dilution plating on YPD; type: cell-based, Candida albicans
Description: The plated cells were incubated for 24 h at 37° C. and visually analyzed. The cells from the mature biofilm treated with water were used as a control. […] At the concentrations of 0.2 and 0.5 g/ml after 5 h of incubation the cell viability was decreased by about 100 times for both C. albicans and C. glabrata.

[6] = tested on: Lactobacillus iners CCUG 44025; experiment: MIC microdilution test; type: cell-based; conditions: CAMHB, anaerobic conditions, 120 hours
Description: as §5, §6
The pH was also measured for all dilutions, n=1, pH=6.8-7.1

C. glabrata = experiment: Viability of mature biofilm, XTT assay; type: cell-based, Candida glabrata; conditions: 24 h of incubation with GDA
Description: as §4

MIC (g/ml) [3]: 0.0078 g/ml | MIC (g/ml) [4]: 0.001 g/ml | MIC (g/ml) [6]: 0.0078 g/ml
Structure (SMILES): O=C1O[C@H](CO)[C@@H](O)[C@H](O)[C@H]1O [GDA, glucono-δ-lactone]
effect on growth (biomass) (Escherichia coli K12; M9 medium, 24-48 hours): inhibiting effect on the growth | decrease of biofilm formation (Escherichia coli K12; pH 2.6, 24 h): 14.2 times | decrease of biofilm formation (Escherichia coli K12; pH 2.6, 48 h): 30 times | Normalized biofilm (% of control), 1 h (Candida glabrata): 71 % of control | Normalized biofilm (% of control), 1 h (Candida albicans; pellet 2.5 g in pH 3.71 buffer at 37° C, sample after 1 h, diluted 50 times, biofilm after 24 h): 8.3 % of control | duration of preventive effect on biofilm formation from pellet hydrolysis (Candida albicans; pellet in pH 3.71 buffer, samples 1-24 h diluted 50 times): ≥ 24 h | cell morphology (C. albicans [1]): most treated cells were planctonic | decrease in viability of mature biofilm (XTT) (C. albicans [2]): clearly seen | decrease of cell viability (C. albicans [5]; 0.2 and 0.5 g/ml, 5 h of incubation, 37° C): about 100 times | decrease of cell viability (C. albicans [5]; 0.5 g/ml, 73 h of incubation): about 1000 times | decrease in viability of mature biofilm (XTT) (C. glabrata): strong decrease in viability
